Data published in BindingDB's records for doi:10.1016/j.bioorg.2015.09.009 (Quaid-I-Azam University, 2015).
pIC50: −log10 of the molar value.

Legend:
[1] = target: Acetylcholinesterase (Electrophorus electricus, UniProt O42275); assay: AChE and BChE Inhibitory Activities
[2] = target: Carboxylic ester hydrolase (Equus caballus, UniProt Q9N1N9); assay: AChE and BChE Inhibitory Activities
Carboxylic ester hydrolase, sequence (Q9N1N9 whole entry): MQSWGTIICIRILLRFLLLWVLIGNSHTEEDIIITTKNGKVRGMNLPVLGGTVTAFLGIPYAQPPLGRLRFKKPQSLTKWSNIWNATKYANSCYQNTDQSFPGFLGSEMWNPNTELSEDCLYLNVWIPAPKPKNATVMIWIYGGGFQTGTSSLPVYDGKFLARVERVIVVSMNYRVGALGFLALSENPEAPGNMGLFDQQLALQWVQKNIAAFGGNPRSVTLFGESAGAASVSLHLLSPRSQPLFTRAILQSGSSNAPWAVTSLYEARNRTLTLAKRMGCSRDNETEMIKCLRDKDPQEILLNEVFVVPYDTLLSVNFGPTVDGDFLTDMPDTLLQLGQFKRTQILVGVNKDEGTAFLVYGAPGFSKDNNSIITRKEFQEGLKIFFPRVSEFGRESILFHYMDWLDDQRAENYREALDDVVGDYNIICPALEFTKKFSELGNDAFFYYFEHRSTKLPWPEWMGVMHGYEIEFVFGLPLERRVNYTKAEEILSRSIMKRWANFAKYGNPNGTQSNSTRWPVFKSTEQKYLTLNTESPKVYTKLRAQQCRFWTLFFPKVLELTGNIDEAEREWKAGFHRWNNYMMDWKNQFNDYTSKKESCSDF

Acetylcholinesterase, sequence (O42275 whole entry): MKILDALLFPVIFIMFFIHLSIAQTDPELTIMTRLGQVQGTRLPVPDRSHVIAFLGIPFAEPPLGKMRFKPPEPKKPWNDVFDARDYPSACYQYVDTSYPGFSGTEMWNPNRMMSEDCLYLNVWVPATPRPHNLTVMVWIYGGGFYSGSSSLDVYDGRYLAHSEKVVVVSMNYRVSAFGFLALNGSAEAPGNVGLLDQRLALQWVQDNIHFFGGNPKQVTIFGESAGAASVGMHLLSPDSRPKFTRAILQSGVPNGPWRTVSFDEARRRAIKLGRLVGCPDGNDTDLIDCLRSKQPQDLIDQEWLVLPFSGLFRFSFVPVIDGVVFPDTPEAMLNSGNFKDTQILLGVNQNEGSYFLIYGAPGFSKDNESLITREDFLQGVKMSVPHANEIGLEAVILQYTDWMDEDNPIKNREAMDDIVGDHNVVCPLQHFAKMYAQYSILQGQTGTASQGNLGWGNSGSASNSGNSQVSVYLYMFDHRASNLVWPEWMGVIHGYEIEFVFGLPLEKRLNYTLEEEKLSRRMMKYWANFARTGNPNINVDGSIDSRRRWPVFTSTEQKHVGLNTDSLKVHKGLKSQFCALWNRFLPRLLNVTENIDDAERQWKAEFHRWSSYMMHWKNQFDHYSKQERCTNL

**Q.** How did the pIC50 [1] turn out when `O=C(NC(=S)NC1CCCCC1)c1cc2ccccc2oc1=O` [1-(2-Oxo-2H-chromene-3-carbonyl)-3-(cyclohexyl)thiourea (2l)] was run?
**A.** The pIC50 was 5.16.

**Q.** And the pIC50 [2]?
**A.** Its pIC50 is 4.91.

**Q.** How did the pIC50 [1] turn out when `O=C(NC(=S)Nc1ccc(Cl)cc1Cl)c1cc2ccccc2oc1=O` [1-(2-Oxo-2H-chromene-3-carbonyl)-3-(2,4-dichlorophenyl)thiourea (2h)] was run?
**A.** Its pIC50 is 5.21.

**Q.** And the pIC50 [2]?
**A.** The pIC50 was 4.88.

**Q.** With `Cc1cccc(NC(=S)NC(=O)c2cc3ccccc3oc2=O)c1` [1-(2-Oxo-2H-chromene-3-carbonyl)-3-(3-methylphenyl)thiourea (2a)] as the molecule, how does the pIC50 [1] read?
**A.** Its pIC50 is 6.07.

**Q.** What about the pIC50 [2] of the same molecule?
**A.** Its pIC50 is 5.67.

**Q.** `O=C(NC(=S)Nc1cccc(F)c1)c1cc2ccccc2oc1=O` [1-(2-Oxo-2H-chromene-3-carbonyl)-3-(3-fluorophenyl)thiourea (2c)] was tested. Which pIC50 [1] did it give?
**A.** The pIC50 was 4.76.

**Q.** And the pIC50 [2]?
**A.** The pIC50 was 4.79.

**Q.** `O=C(NC(=S)Nc1cccc(Cl)c1Cl)c1cc2ccccc2oc1=O` [1-(2-Oxo-2H-chromene-3-carbonyl)-3-(2,3-dichlorophenyl)thiourea (2d)] was tested. Which pIC50 [1] did it give?
**A.** Its pIC50 is 5.95.

**Q.** What about the pIC50 [2] of the same molecule?
**A.** Its pIC50 is 4.50.

**Q.** Which results are given for `O=C(NC(=S)Nc1ccc(Cl)cc1)c1cc2ccccc2oc1=O` [1-(2-Oxo-2H-chromene-3-carbonyl)-3-(4-chlorophenyl)thiourea (2i)]?
**A.** pIC50 [1]: 5.29; pIC50 [2]: 4.37

**Q.** `O=C(NC(=S)Nc1ccccc1[N+](=O)[O-])c1cc2ccccc2oc1=O` [1-(2-Oxo-2H-chromene-3-carbonyl)-3-(2-nitrophenyl)thiourea (2j)] was tested. Which pIC50 [1] did it give?
**A.** The pIC50 was 6.64.

**Q.** What about the pIC50 [2] of the same molecule?
**A.** The pIC50 was 4.58.

**Q.** How did the pIC50 [1] turn out when `O=C(NC(=S)Nc1ccc(F)c(Cl)c1)c1cc2ccccc2oc1=O` [1-(2-Oxo-2H-chromene-3-carbonyl)-3-(3-chloro-4-fluorophenyl)thiourea (2f)] was run?
**A.** Its pIC50 is 6.12.

**Q.** And the pIC50 [2]?
**A.** Its pIC50 is 6.08.

**Q.** How did the pIC50 [1] turn out when `O=C(NC(=S)Nc1cccc(Cl)c1)c1cc2ccccc2oc1=O` [1-(2-Oxo-2H-chromene-3-carbonyl)-3-(3-chlorophenyl)thiourea (2e)] was run?
**A.** Its pIC50 is 7.40.

**Q.** What about the pIC50 [2] of the same molecule?
**A.** The pIC50 was 5.90.

**Q.** With `COc1cccc(NC(=S)NC(=O)c2cc3ccccc3oc2=O)c1` [1-(2-Oxo-2H-chromene-3-carbonyl)-3-(3-methoxyphenyl)thiourea (2k)] as the molecule, how does the pIC50 [1] read?
**A.** Its pIC50 is 5.07.

**Q.** And the pIC50 [2]?
**A.** The pIC50 was 4.27.

**Q.** How did the pIC50 [1] turn out when `O=C(NC(=S)Nc1ccccc1Cl)c1cc2ccccc2oc1=O` [1-(2-Oxo-2H-chromene-3-carbonyl)-3-(2-chlorophenyl)thiourea (2g)] was run?
**A.** The pIC50 was 5.14.

**Q.** And the pIC50 [2]?
**A.** The pIC50 was 4.95.

**Q.** With `COc1ccccc1NC(=S)NC(=O)c1cc2ccccc2oc1=O` [1-(2-Oxo-2H-chromene-3-carbonyl)-3-(2-methoxyphenyl)thiourea (2b)] as the molecule, how does the pIC50 [1] read?
**A.** The pIC50 was 4.88.

**Q.** What about the pIC50 [2] of the same molecule?
**A.** The pIC50 was 7.22.
